Reference: ChEMBL document CHEMBL3286174, “Orally active 7-substituted (4-benzylphthalazin-1-yl)-2-methylpiperazin-1-yl]nicotinonitriles as active-site inhibitors of sphingosine 1-phosphate lyase for the treatment of multiple sclerosis” (J Med Chem, 2014)

Key:
[1] = target: T1, Sphingosine-1-phosphate lyase 1 (Homo sapiens, UniProt O95470); test: biochemical
T1 sequence (O95470 whole entry): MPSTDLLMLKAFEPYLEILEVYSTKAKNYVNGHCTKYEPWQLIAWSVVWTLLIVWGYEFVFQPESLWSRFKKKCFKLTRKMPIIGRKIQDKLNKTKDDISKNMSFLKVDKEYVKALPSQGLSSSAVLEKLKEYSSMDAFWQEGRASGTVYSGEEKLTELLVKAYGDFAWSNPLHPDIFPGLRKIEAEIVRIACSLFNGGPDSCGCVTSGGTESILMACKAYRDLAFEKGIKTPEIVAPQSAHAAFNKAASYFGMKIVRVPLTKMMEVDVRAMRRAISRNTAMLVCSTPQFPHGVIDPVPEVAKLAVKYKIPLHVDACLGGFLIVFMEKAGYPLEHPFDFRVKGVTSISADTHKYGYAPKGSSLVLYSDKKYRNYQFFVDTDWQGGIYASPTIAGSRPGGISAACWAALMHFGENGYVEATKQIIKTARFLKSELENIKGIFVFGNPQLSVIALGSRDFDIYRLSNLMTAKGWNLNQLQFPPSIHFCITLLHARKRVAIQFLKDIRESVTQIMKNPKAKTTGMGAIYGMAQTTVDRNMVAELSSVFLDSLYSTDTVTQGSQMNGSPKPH
Description: Inhibition of human recombinant S1PL (62 to 568) expressed in Sf9 insect cells using S1P as substrate after 1 hr

Protein smoothened = Protein smoothened (Homo sapiens, UniProt Q99835); test: Antagonist activity at smoothened (unknown origin)
Chain of Protein smoothened (Q99835 whole entry): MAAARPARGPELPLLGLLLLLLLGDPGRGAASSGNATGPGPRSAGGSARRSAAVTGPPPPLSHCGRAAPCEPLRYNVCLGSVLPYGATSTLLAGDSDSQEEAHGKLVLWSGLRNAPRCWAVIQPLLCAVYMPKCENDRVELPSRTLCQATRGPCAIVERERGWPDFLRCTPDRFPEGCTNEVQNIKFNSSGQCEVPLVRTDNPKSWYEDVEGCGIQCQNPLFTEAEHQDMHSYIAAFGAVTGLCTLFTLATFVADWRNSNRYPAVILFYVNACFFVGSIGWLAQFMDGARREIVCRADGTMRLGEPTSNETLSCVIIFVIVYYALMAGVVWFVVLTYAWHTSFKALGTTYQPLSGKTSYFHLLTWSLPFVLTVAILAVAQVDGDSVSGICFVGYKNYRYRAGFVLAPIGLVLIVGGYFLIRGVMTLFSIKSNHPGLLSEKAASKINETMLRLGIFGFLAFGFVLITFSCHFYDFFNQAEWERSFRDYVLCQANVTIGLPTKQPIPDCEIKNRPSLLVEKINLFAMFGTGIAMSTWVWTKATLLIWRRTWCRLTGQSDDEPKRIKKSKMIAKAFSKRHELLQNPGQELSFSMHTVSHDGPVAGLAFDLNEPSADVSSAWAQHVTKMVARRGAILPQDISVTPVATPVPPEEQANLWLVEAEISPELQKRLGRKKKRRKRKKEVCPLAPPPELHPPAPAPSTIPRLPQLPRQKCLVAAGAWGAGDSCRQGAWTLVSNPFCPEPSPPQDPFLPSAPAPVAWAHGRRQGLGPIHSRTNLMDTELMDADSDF

[2] = Blood clearance in Sprague-Dawley rat at 1 mg/kg, iv; type: ADME, organism-based; design: dose 1 mg/kg, route intravenous; settings: whole blood
[3] = Half life in Sprague-Dawley rat at 1 mg/kg, iv; type: ADME, organism-based; design: dose 1 mg/kg, route intravenous; settings: in vivo
[4] = AUC (0 to infinity) in Sprague-Dawley rat at 3 mg/kg, po; type: ADME, organism-based, Plasma; design: time infinity, dose 3 mg/kg, route oral; settings: blood
[5] = Cmax in Sprague-Dawley rat at 3 mg/kg, po; type: ADME, organism-based; design: dose 3 mg/kg, route oral; settings: in vivo
[6] = Tmax in Sprague-Dawley rat at 3 mg/kg, po; type: ADME, organism-based; design: dose 3 mg/kg, route oral; settings: in vivo
[7] = Oral bioavailability in Sprague-Dawley rat at 3 mg/kg; type: ADME, organism-based; settings: in vivo
Rattus norvegicus [8] = test: Reduction of peripheral CD4+ T cell level in Wistar rat at 50 mg/kg, po after 14 to 24 hrs by flow cytometry analysis; type: functional; design: scale not given: the % may be the effect or the level left
Rattus norvegicus [9] = test: Reduction of peripheral CD4+ and CD8+ T cell level in Wistar rat at 2 mg/kg, po administered ever 12 hrs for 4 times measured 12 hrs after last dose by flow cytometry analysis; type: functional; design: scale not given: the % may be the effect or the level left
Rattus norvegicus [10] = test: Reduction of peripheral B cell level in Wistar rat at 2 mg/kg, po administered ever 12 hrs for 4 times measured 12 hrs after last dose by flow cytometry analysis; type: functional; design: scale not given: the % may be the effect or the level left
[11] = Plasma concentration in Wistar rat at 2 mg/kg, po administered ever 12 hrs for 4 times measured 12 hrs after last dose; type: ADME, organism-based; design: dose 2 mg/kg, route oral
[12] = Drug level in blood of incomplete Freund's adjuvant-induced autoimmune encephalomyelitis DA rat model at 2 mg/kg, po bid administered 2 days before the induction of EAE; type: organism-based; design: dose 2 mg/kg, route oral; settings: whole blood, read-out: Drug uptake
[13] = Drug level in brain of incomplete Freund's adjuvant-induced autoimmune encephalomyelitis DA rat model at 2 mg/kg, po bid administered 2 days before the induction of EAE; type: organism-based; design: dose 2 mg/kg, route oral; settings: read-out: Drug uptake
Rattus norvegicus [14] = test: Antiinflammatory activity in incomplete Freund's adjuvant-induced autoimmune encephalomyelitis DA rat model assessed as S1P level in lymph node at 2 mg/kg, po bid administered 2 days before the induction of EAE relative to control; type: functional
Rattus norvegicus [15] = test: Antiinflammatory activity in incomplete Freund's adjuvant-induced autoimmune encephalomyelitis DA rat model assessed as S1P level in brain at 2 mg/kg, po bid administered 2 days before the induction of EAE; type: functional
[16] = target: T1, Sphingosine-1-phosphate lyase 1; test: Inhibition of S1PL (unknown origin)

IC50 [1]	SMILES	other results
3.4 µM	CCOC(=O)c1ccc(N2CCN(c3nnc(Cc4ccccc4)c4ccccc34)C[C@H]2C)nc1	–
30 µM	C[C@@H]1CN(c2nnc(Cc3ccccc3)c3ccccc23)CCN1c1ccc(C(F)(F)F)cn1	–
0.74 µM	C[C@@H]1CN(c2nnc(Cc3ccccc3)c3ccccc23)CCN1c1ccc([N+](=O)[O-])cn1	–
> 30 µM	C[C@@H]1CN(c2nnc(Cc3ccccc3)c3ccccc23)CCN1c1ccc(C(=O)O)cn1	–
1.7 µM	CC[C@@H]1CN(c2nnc(Cc3ccccc3)c3ccccc23)CCN1c1ccc(C#N)cn1	–
2.5 µM	CC(C)[C@@H]1CN(c2nnc(Cc3ccccc3)c3ccccc23)CCN1c1ccc(C#N)cn1	–
> 30 µM	C[C@@H]1CN(c2nnc(Cl)c3ccccc23)CCN1c1ccc(C#N)cn1	–
> 30 µM	C[C@@H]1CN(c2nnc(-c3ccccc3)c3ccccc23)CCN1c1ccc(C#N)cn1	–
30 µM	C[C@@H]1CN(c2nnc(CCc3ccccc3)c3ccccc23)CCN1c1ccc(C#N)cn1	–
2.3 µM	C[C@@H]1CN(c2nnc(Cc3ccccc3)c3cc(Cl)ccc23)CCN1c1ccc(C#N)cn1	–
0.21 µM	C[C@@H]1CN(c2nnc(Cc3ccccc3)c3ccc(Cl)cc23)CCN1c1ccc(C#N)cn1	IC50 (Protein smoothened): 0.44 µM; clearance [2]: 23 mL/min/kg; half-life [3]: 9.1 h; AUC(0-inf) [4]: 1.3 µM·h; Cmax [5]: 99 nM; Tmax [6]: 5 h; bioavailability [7]: 26%; Activity (Rattus norvegicus [8]): >80%; Activity (Rattus norvegicus [9]): >95%; Activity (Rattus norvegicus [10]): 70%; concentration at 12 h [11]: 400 nM; concentration at 48 h [12]: 840 nM; concentration at 48 h [13]: 610 nM; fold change (FC) (Rattus norvegicus [14]): 150; Activity (Rattus norvegicus [15]): 2.4 pmol/mg
12 µM	C[C@@H]1CN(c2nnc(Cc3ccccc3)c3cc(C(F)(F)F)ccc23)CCN1c1ccc(C#N)cn1	–
0.1 µM	C[C@@H]1CN(c2nnc(Cc3ccccc3)c3ccc(C(F)(F)F)cc23)CCN1c1ccc(C#N)cn1	–
1.3 µM	C[C@@H]1CN(c2nnc(Cc3ccccc3)c3cc(C#N)ccc23)CCN1c1ccc(C#N)cn1	–
–	C[C@@H]1CN(c2nnc(Cc3ccccc3)c3ccc(C#N)cc23)CCN1c1ccc(C#N)cn1	IC50 (Protein smoothened): > 25 µM
–	CC(=O)c1nc([C@@H](O)[C@H](O)[C@H](O)CO)c[nH]1	IC50 [16]: > 100 µM
> 30 µM	C[C@H]1CN(c2nnc(Cc3ccccc3)c3ccccc23)CCN1c1ccc(C#N)cn1	–
2.4 µM	C[C@@H]1CN(c2nnc(Cc3ccccc3)c3ccccc23)CCN1c1ccc(C#N)cn1	–
> 30 µM	N#Cc1ccc(N2CCN(c3nnc(Cc4ccccc4)c4ccccc34)CC2)nc1	–
> 30 µM	N#Cc1ccc(N2CCN(c3nnc(Cc4ccccc4)c4ccccc34)CC2CO)nc1 (single isomer, unassigned)	–
17 µM	CCCCCCCCc1ccc(CCC(N)(CO)CO)cc1 [FINGOLIMOD]	IC50 [16]: 17 µM
–	C/C(=N\O)c1nc([C@@H](O)[C@H](O)[C@H](O)CO)c[nH]1 [LX-2931]	IC50 [16]: > 100 µM
